Test results as given in US20240041042A1, “1-(PYRIDYL)-5-AZINYLPYRAZOLE DERIVATIVES, AND THEIR USE FOR CONTROL OF UNDESIRED PLANT GROWTH” (Bayer Aktiengesellschaft, priority 2020, published 2024).
Where two headings read alike, the source gives them in different places.

Columns and labels:
Type in all cases: in vivo
[1] = system: Matricaria inodora (MATIN); test: Post-emergence herbicidal action against MATIN
Description: Seeds of monocotyledonous and dicotyledonous weeds and crop plants are placed in sandy loam in plastic or organic planting pots, covered with soil and cultivated in a greenhouse under controlled growth conditions. 2 to 3 weeks after sowing, the test plants are treated at the one-leaf stage. The compounds of the invention, formulated in the form of wettable powders (WP) or as emulsion concentrates (EC), are then sprayed onto the green parts of the plants as aqueous suspension or emulsion with addition of 0.5% additive at a water application rate of 600 l/ha (converted). After the test plants have been kept in the greenhouse under optimum growth conditions for about 3 weeks, the activity of the preparations is rated visually in comparison to untreated controls. For example, 100% activity=the plants have died, 0% activity=like control plants.
Tables B1 to B13 below show the effects of selected compounds of the general formula (I) according to Table 1 on various harmful plants and at an application rate corresponding to 320 g/ha or lower, which were obtained by the experimental procedure mentioned above. The appendices “a”, “b” and “c” give differentiation by dosage used with otherwise the same harmful plants tested.

[2] = system: Viola tricolor (VIOTR); test: Post-emergence herbicidal action against VIOTR
Procedure, shortened: (§1)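 Values are percent visual activity (0% like control, 100% plants dead) after about 3 weeks in the greenhouse. Treatment: post-emergence spray at one-leaf stage, 600 l/ha spray volume, 0.5% additive, doses 320 g/ha or lower.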

[3] = system: Alopecurus myosuroides (ALOMY); test: Pre-emergence herbicidal action against ALOMY; conditions: scored visually after about 3 weeks, 100% = plants have died
Procedure, shortened: (§2)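 Pre-emergence soil-surface spray, WP/EC formulation, 0.5% additive, 600 l/ha water, rates of 320 g/ha or lower. Greenhouse, ~3 wk. Visual score, % of untreated control (100% = plants dead, 0% = like control).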

[4] = system: Oryza sativa (ORYSA); conditions: crop plant compatibility
Procedure, shortened: (§3)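 One-leaf-stage crops (2–3 wk post-sowing, sandy loam, greenhouse) sprayed on green parts; 0.5% additive, 600 l/ha water. Rated by eye ~3 wk later, % vs untreated; suffixes a/b/c mark different dosages.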

[5] = system: Amaranthus retroflexus (AMARE); test: Post-emergence herbicidal action against AMARE
Procedure, shortened: as §1

[6] = system: Pharbitis purpurea (PHBPU); test: Post-emergence herbicidal action against PHBPU
Procedure, shortened: as §1

[7] = system: Lolium rigidum (LOLRI); test: Pre-emergence herbicidal action against LOLRI
Procedure, shortened: as §2

[8] = system: Setaria viridis (SETVI); test: Pre-emergence herbicidal action against SETVI
Procedure, shortened: as §2

[9] = system: Lolium rigidum (LOLRI); test: Post-emergence herbicidal action against LOLRI
Procedure, shortened: as §1

[10] = system: Avena fatua (AVEFA); test: Pre-emergence herbicidal action against AVEFA; conditions: visual scoring after about 3 weeks vs untreated controls
Procedure, shortened: as §2

[11] = system: Pharbitis purpurea (PHBPU); test: Pre-emergence herbicidal action against PHBPU; conditions: dosage 320 g/ha
Procedure, shortened: as §2

[12] = system: Echinochloa crus-galli (ECHCG); test: Pre-emergence herbicidal action against ECHCG
Procedure, shortened: as §2

[13] = system: Avena fatua (AVEFA); test: Post-emergence herbicidal action against AVEFA; conditions: visual rating about 3 weeks after treatment
Procedure, shortened: as §1

[14] = system: Echinochloa crus-galli (ECHCG); test: Post-emergence herbicidal action against ECHCG
Procedure, shortened: as §1

[15] = system: Matricaria inodora (MATIN); test: Pre-emergence herbicidal action against MATIN; conditions: dosage 320 g/ha
Procedure, shortened: as §2

[16] = system: Verconica persica (VERPE); test: Post-emergence herbicidal action against VERPE
Procedure, shortened: as §1

[17] = system: Amaranthus retroflexus (AMARE); test: Pre-emergence herbicidal action against AMARE; conditions: visual scoring after about 3 weeks vs untreated controls
Procedure, shortened: as §2

[18] = system: Polygonum convolvulus (POLCO); test: Pre-emergence herbicidal action against POLCO
Procedure, shortened: as §2

[19] = system: Viola tricolor (VIOTR); test: Pre-emergence herbicidal action against VIOTR
Procedure, shortened: as §2

[20] = system: Alopecurus myosuroides (ALOMY); test: Post-emergence herbicidal action against ALOMY; conditions: visual rating about 3 weeks after treatment vs untreated controls (100% = plants have died, 0% = like control plants)
Procedure, shortened: as §1

[21] = system: Setaria viridis (SETVI); test: Post-emergence herbicidal action against SETVI
Procedure, shortened: as §1

[22] = system: Verconica persica (VERPE); test: Pre-emergence herbicidal action against VERPE
Procedure, shortened: as §2

[23] = system: Zea mays (ZEAMX)
Procedure, shortened: as §3

[24] = 80 g/ha, visual rating about 3 weeks after treatment vs untreated controls (100% = plants have died, 0% = like control plants)

Row | Structure (SMILES) | Post-emergence action against MATIN in % ([1]; dosage 80 g/ha) [%] | Post-emergence action against MATIN in % ([1]; dosage 320 g/ha) [%] | Post-emergence action against VIOTR in % ([2]; 320 g/ha) [%] | Pre-emergence action against ALOMY ([3]; 80 g/ha) [%] | Pre-emergence action against ALOMY ([3]; 320 g/ha) [%] | Post-emergence action against AMARE in % [5, 24] [%] | Pre-emergence action against LOLRI in % ([7]; dosage 320 g/ha) [%] | Pre-emergence action against SETVI in % ([8]; dosage 320 g/ha) [%] | Pre-emergence action against AVEFA in % ([10]; 320 g/ha) [%] | Pre-emergence action against PHBPU in % [11] [%] | Pre-emergence action against ECHCG in % ([12]; dosage 320 g/ha) [%] | Post-emergence action against ECHCG in % ([14]; dosage 80 g/ha) [%] | Pre-emergence action against MATIN in % [15] [%] | Post-emergence action against VERPE in % ([16]; dosage 80 g/ha) [%] | Pre-emergence action against AMARE in % ([17]; 80 g/ha) [%] | Pre-emergence action against AMARE in % ([17]; 320 g/ha) [%] | Pre-emergence action against POLCO in % ([18]; dosage 320 g/ha) [%] | Pre-emergence action against VIOTR in % ([19]; 320 g/ha, Viola tricolor) [%] | Post-emergence action against ALOMY in % ([20]; 80 g/ha) [%] | Pre-emergence action against VERPE in % ([22]; dosage 320 g/ha) [%] | further results
1 | C=C(COC(=O)COc1nn(-c2ccccn2)c(-c2ccc(F)nc2)c1Br)C(=O)OC [Example I-370] | 80 | 80 | 80 | 80 | 100 | 80 | 100 | 100 | 90 | 90 | 100 | 80 | 100 | 90 | 100 | 100 | 100 | 100 | 100 | 100 | Post-emergence action against ORYSA in % ([4]; 80 g/ha, effect in comparison to untreated controls): 0%; Post-emergence action against AMARE in % ([5]; 320 g/ha, visual rating about 3 weeks after treatment): 80%; Post-emergence action against PHBPU in % ([6]; dosage 80 g/ha): 80%; Post-emergence action against PHBPU in % ([6]; dosage 320 g/ha): 90%; Pre-emergence action against LOLRI in % ([7]; dosage 80 g/ha): 90%; Pre-emergence action against SETVI in % ([8]; dosage 80 g/ha): 100%; Post-emergence action against LOLRI in % ([9]; dosage 320 g/ha): 90%; Pre-emergence action against AVEFA in % ([10]; 80 g/ha): 90%; Post-emergence action against AVEFA in % ([13]; 320 g/ha): 90%; Post-emergence action against ECHCG in % ([14]; dosage 320 g/ha): 80%; Post-emergence action against VERPE in % ([16]; 320 g/ha, VERPE): 90%; Pre-emergence action against POLCO in % ([18]; dosage 80 g/ha): 80%; Post-emergence action against ALOMY in % ([20]; 320 g/ha): 100%; Post-emergence action against SETVI in % ([21]; dosage 80 g/ha): 80%; Post-emergence action against SETVI in % ([21]; dosage 320 g/ha): 80%; Pre-emergence action against VERPE in % ([22]; dosage 80 g/ha): 90%
2 | CCOC(=O)COc1nn(-c2ncccc2C)c(-c2ccc(F)nc2)c1Cl [Example I-316] | 80 | 90 | 90 | 90 | 100 |  | 100 | 100 | 100 | 90 | 100 | 90 | 100 | 90 | 100 | 100 | 100 | 100 | 100 | 100 | Post-emergence action against VIOTR in % ([2]; 80 g/ha): 90%; Post-emergence action against ZEAMX in % ([23]; crop plant compatibility, 80 g/ha, effect vs untreated controls): 0%; Post-emergence action against PHBPU in % ([6]; dosage 80 g/ha): 90%; Post-emergence action against PHBPU in % ([6]; dosage 320 g/ha): 90%; Pre-emergence action against LOLRI in % ([7]; dosage 80 g/ha): 100%; Pre-emergence action against SETVI in % ([8]; dosage 80 g/ha): 100%; Post-emergence action against LOLRI in % ([9]; dosage 80 g/ha): 100%; Post-emergence action against LOLRI in % ([9]; dosage 320 g/ha): 100%; Pre-emergence action against ECHCG in % ([12]; dosage 80 g/ha): 100%; Post-emergence action against AVEFA in % ([13]; 80 g/ha): 90%; Post-emergence action against AVEFA in % ([13]; 320 g/ha): 100%; Post-emergence action against ECHCG in % ([14]; dosage 320 g/ha): 90%; Post-emergence action against VERPE in % ([16]; 320 g/ha, VERPE): 90%; Pre-emergence action against POLCO in % ([18]; dosage 80 g/ha): 100%; Pre-emergence action against VIOTR in % ([19]; dosage 80 g/ha): 100%; Post-emergence action against ALOMY in % ([20]; 320 g/ha): 100%; Post-emergence action against SETVI in % ([21]; dosage 80 g/ha): 90%; Post-emergence action against SETVI in % ([21]; dosage 320 g/ha): 90%
3 | O=C(O)COc1nn(-c2ccccn2)c(-c2ccc(F)nc2)c1Cl [Example I-98] | 80 |  |  | 90 | 100 | 80 | 100 | 100 | 80 | 90 | 100 | 80 | 90 | 80 | 100 | 100 | 90 | 100 | 90 | 100 | Post-emergence action against ZEAMX in % (crop plant compatibility) ([23]; 20 g/ha, ZEAMX, effect in comparison to untreated controls): 10%; Post-emergence action against ORYSA in % ([4]; 20 g/ha, effect vs untreated controls): 10%; Post-emergence action against AVEFA in % ([13]; 80 g/ha): 80%
